{"source": "PubChem BioAssay AID2060895", "about": "(Molecular Pharmacology Branch, DTP, NCI, 2025);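 on viability, T/C: spheroids exposed to agents for seven days before readout; 100% = DMSO vehicle control wells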", "test_system": "PDC 899932-113-R3-J6 complex spheroid viability", "test": "Anticancer human tumor 899932-113-R3-J6-PDC patient-derived melanoma cell line growth inhibition [RAS]", "settings": "for IC50: curve of first compound; for viability, T/C: stronger effect = lower value", "procedure,_shortened": "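Multi-cell-type spheroids: tumor cells plus HUVEC endothelial cells and mesenchymal stem cells. RAS-pathway inhibitors were combined with targeted agents, each dosed in half-log steps down from clinical Cmax, or from 10 microM when Cmax was unknown.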", "data": [{"smiles": "NC1c2ccccc2OC12CCN(c1cnc3c(N4CCCc5ncccc54)n[nH]c3n1)CC2", "note": "(centres undefined) + CCn1c(-c2cc(N3CCN(C)CC3)cnc2C(C)OC)c2c3cc(ccc31)-c1csc(n1)CC(NC(=O)C1CC1C)C(=O)N1CCCC(N1)C(=O)OCC(C)(C)C2", "values": [{"measurement": "IC50", "setting": "second compound 0.000949 µM", "value": "> 10", "unit": "µM"}, {"measurement": "IC50", "setting": "second compound 0.003 µM", "value": "< 0.0316", "unit": "µM"}, {"measurement": "IC50", "setting": "second compound 0.00949 µM", "value": "< 0.0316", "unit": "µM"}, {"measurement": "IC50", "setting": "second compound 0.03 µM", "value": "< 0.0316", "unit": "µM"}, {"measurement": "IC50", "setting": "second compound 0.0949 µM", "value": "< 0.0316", "unit": "µM"}, {"measurement": "IC50", "setting": "second compound 0.3 µM", "value": "< 0.0316", "unit": "µM"}, {"measurement": "viability, T/C", "setting": "second compound 0.000949 µM, first compound 0.0316 µM", "value": 72.7, "unit": "%"}, {"measurement": "viability, T/C", "setting": "second compound 0.000949 µM, first compound 0.1 µM", "value": 64.5, "unit": "%"}, {"measurement": "viability, T/C", "setting": "second compound 0.000949 µM, first compound 0.316 µM", "value": 79.9, "unit": "%"}, {"measurement": "viability, T/C", "setting": "second compound 0.000949 µM, first compound 1 µM", "value": 73.4, "unit": "%"}, {"measurement": "viability, T/C", "setting": "second compound 0.000949 µM, first compound 3.16 µM", "value": 81, "unit": "%"}, {"measurement": "viability, T/C", "setting": "second compound 0.000949 µM, first compound 10 µM", "value": 70.2, "unit": "%"}, {"measurement": "viability, T/C", "setting": "second compound 0.003 µM, first compound 0.0316 µM", "value": 31.8, "unit": "%"}, {"measurement": "viability, T/C", "setting": "second compound 0.003 µM, first compound 0.1 µM", "value": 27.1, "unit": "%"}, {"measurement": "viability, T/C", "setting": "second compound 0.003 µM, first compound 0.316 µM", "value": 34.3, "unit": "%"}, {"measurement": "viability, T/C", "setting": "second compound 0.003 µM, first compound 1 µM", "value": 38, "unit": "%"}, {"measurement": "viability, T/C", "setting": "second compound 0.003 µM, first compound 3.16 µM", "value": 38.2, "unit": "%"}, {"measurement": "viability, T/C", "setting": "second compound 0.003 µM, first compound 10 µM", "value": 12.4, "unit": "%"}, {"measurement": "viability, T/C", "setting": "second compound 0.00949 µM, first compound 0.0316 µM", "value": 2.82, "unit": "%"}, {"measurement": "viability, T/C", "setting": "second compound 0.00949 µM, first compound 0.1 µM", "value": 2.7, "unit": "%"}, {"measurement": "viability, T/C", "setting": "second compound 0.00949 µM, first compound 0.316 µM", "value": 2, "unit": "%"}, {"measurement": "viability, T/C", "setting": "second compound 0.00949 µM, first compound 1 µM", "value": 2.89, "unit": "%"}, {"measurement": "viability, T/C", "setting": "second compound 0.00949 µM, first compound 3.16 µM", "value": 3.55, "unit": "%"}, {"measurement": "viability, T/C", "setting": "second compound 0.00949 µM, first compound 10 µM", "value": 4.09, "unit": "%"}, {"measurement": "viability, T/C", "setting": "second compound 0.03 µM, first compound 0.0316 µM", "value": 2.17, "unit": "%"}, {"measurement": "viability, T/C", "setting": "second compound 0.03 µM, first compound 0.1 µM", "value": 1.67, "unit": "%"}, {"measurement": "viability, T/C", "setting": "second compound 0.03 µM, first compound 0.316 µM", "value": 1.01, "unit": "%"}, {"measurement": "viability, T/C", "setting": "second compound 0.03 µM, first compound 1 µM", "value": 0.93, "unit": "%"}, {"measurement": "viability, T/C", "setting": "second compound 0.03 µM, first compound 3.16 µM", "value": 0.99, "unit": "%"}, {"measurement": "viability, T/C", "setting": "second compound 0.03 µM, first compound 10 µM", "value": 2.33, "unit": "%"}, {"measurement": "viability, T/C", "setting": "second compound 0.0949 µM, first compound 0.0316 µM", "value": 1.84, "unit": "%"}, {"measurement": "viability, T/C", "setting": "second compound 0.0949 µM, first compound 0.1 µM", "value": 1.61, "unit": "%"}, {"measurement": "viability, T/C", "setting": "second compound 0.0949 µM, first compound 0.316 µM", "value": 0.9, "unit": "%"}, {"measurement": "viability, T/C", "setting": "second compound 0.0949 µM, first compound 1 µM", "value": 0.51, "unit": "%"}, {"measurement": "viability, T/C", "setting": "second compound 0.0949 µM, first compound 3.16 µM", "value": 0.3, "unit": "%"}, {"measurement": "viability, T/C", "setting": "second compound 0.0949 µM, first compound 10 µM", "value": 1.08, "unit": "%"}, {"measurement": "viability, T/C", "setting": "second compound 0.3 µM, first compound 0.0316 µM", "value": 1.87, "unit": "%"}, {"measurement": "viability, T/C", "setting": "second compound 0.3 µM, first compound 0.1 µM", "value": 2.01, "unit": "%"}, {"measurement": "viability, T/C", "setting": "second compound 0.3 µM, first compound 0.316 µM", "value": 1.11, "unit": "%"}, {"measurement": "viability, T/C", "setting": "second compound 0.3 µM, first compound 1 µM", "value": 0.31, "unit": "%"}, {"measurement": "viability, T/C", "setting": "second compound 0.3 µM, first compound 3.16 µM", "value": 0.4, "unit": "%"}, {"measurement": "viability, T/C", "setting": "second compound 0.3 µM, first compound 10 µM", "value": 0.35, "unit": "%"}]}, {"smiles": "CC(C)NCC(C(=O)N1CCN(c2ncnc3c2C(C)CC3O)CC1)c1ccc(Cl)cc1", "note": "(centres undefined) + C#Cc1c(F)ccc2cc(O)cc(-c3ncc4c(N5CC6CCC(C5)N6)nc(OCC56CCCN5CC(F)C6)nc4c3F)c12", "values": [{"measurement": "IC50", "setting": "second compound 0.0316 µM", "value": 5.47, "unit": "µM"}, {"measurement": "IC50", "setting": "second compound 0.1 µM", "value": 5.82, "unit": "µM"}, {"measurement": "IC50", "setting": "second compound 0.316 µM", "value": 7.53, "unit": "µM"}, {"measurement": "IC50", "setting": "second compound 1 µM", "value": 7.94, "unit": "µM"}, {"measurement": "IC50", "setting": "second compound 3.16 µM", "value": 8.55, "unit": "µM"}, {"measurement": "IC50", "setting": "second compound 10 µM", "value": 6.45, "unit": "µM"}, {"measurement": "viability, T/C", "setting": "second compound 0.0316 µM, first compound 0.0316 µM", "value": 99.5, "unit": "%"}, {"measurement": "viability, T/C", "setting": "second compound 0.0316 µM, first compound 0.1 µM", "value": 113, "unit": "%"}, {"measurement": "viability, T/C", "setting": "second compound 0.0316 µM, first compound 0.316 µM", "value": 103, "unit": "%"}, {"measurement": "viability, T/C", "setting": "second compound 0.0316 µM, first compound 1 µM", "value": 76.9, "unit": "%"}, {"measurement": "viability, T/C", "setting": "second compound 0.0316 µM, first compound 3.16 µM", "value": 67.4, "unit": "%"}, {"measurement": "viability, T/C", "setting": "second compound 0.0316 µM, first compound 10 µM", "value": 34.8, "unit": "%"}, {"measurement": "viability, T/C", "setting": "second compound 0.1 µM, first compound 0.0316 µM", "value": 108, "unit": "%"}, {"measurement": "viability, T/C", "setting": "second compound 0.1 µM, first compound 0.1 µM", "value": 109, "unit": "%"}, {"measurement": "viability, T/C", "setting": "second compound 0.1 µM, first compound 0.316 µM", "value": 97.3, "unit": "%"}, {"measurement": "viability, T/C", "setting": "second compound 0.1 µM, first compound 1 µM", "value": 86, "unit": "%"}, {"measurement": "viability, T/C", "setting": "second compound 0.1 µM, first compound 3.16 µM", "value": 68.9, "unit": "%"}, {"measurement": "viability, T/C", "setting": "second compound 0.1 µM, first compound 10 µM", "value": 34.4, "unit": "%"}, {"measurement": "viability, T/C", "setting": "second compound 0.316 µM, first compound 0.0316 µM", "value": 105, "unit": "%"}, {"measurement": "viability, T/C", "setting": "second compound 0.316 µM, first compound 0.1 µM", "value": 115, "unit": "%"}, {"measurement": "viability, T/C", "setting": "second compound 0.316 µM, first compound 0.316 µM", "value": 93.7, "unit": "%"}, {"measurement": "viability, T/C", "setting": "second compound 0.316 µM, first compound 1 µM", "value": 99.6, "unit": "%"}, {"measurement": "viability, T/C", "setting": "second compound 0.316 µM, first compound 3.16 µM", "value": 72, "unit": "%"}, {"measurement": "viability, T/C", "setting": "second compound 0.316 µM, first compound 10 µM", "value": 42.5, "unit": "%"}, {"measurement": "viability, T/C", "setting": "second compound 1 µM, first compound 0.0316 µM", "value": 110, "unit": "%"}, {"measurement": "viability, T/C", "setting": "second compound 1 µM, first compound 0.1 µM", "value": 105, "unit": "%"}, {"measurement": "viability, T/C", "setting": "second compound 1 µM, first compound 0.316 µM", "value": 107, "unit": "%"}, {"measurement": "viability, T/C", "setting": "second compound 1 µM, first compound 1 µM", "value": 94.8, "unit": "%"}, {"measurement": "viability, T/C", "setting": "second compound 1 µM, first compound 3.16 µM", "value": 83.1, "unit": "%"}, {"measurement": "viability, T/C", "setting": "second compound 1 µM, first compound 10 µM", "value": 41.5, "unit": "%"}, {"measurement": "viability, T/C", "setting": "second compound 3.16 µM, first compound 0.0316 µM", "value": 110, "unit": "%"}, {"measurement": "viability, T/C", "setting": "second compound 3.16 µM, first compound 0.1 µM", "value": 120, "unit": "%"}, {"measurement": "viability, T/C", "setting": "second compound 3.16 µM, first compound 0.316 µM", "value": 97.6, "unit": "%"}, {"measurement": "viability, T/C", "setting": "second compound 3.16 µM, first compound 1 µM", "value": 101, "unit": "%"}, {"measurement": "viability, T/C", "setting": "second compound 3.16 µM, first compound 3.16 µM", "value": 80.7, "unit": "%"}, {"measurement": "viability, T/C", "setting": "second compound 3.16 µM, first compound 10 µM", "value": 44.8, "unit": "%"}, {"measurement": "viability, T/C", "setting": "second compound 10 µM, first compound 0.0316 µM", "value": 125, "unit": "%"}, {"measurement": "viability, T/C", "setting": "second compound 10 µM, first compound 0.1 µM", "value": 112, "unit": "%"}, {"measurement": "viability, T/C", "setting": "second compound 10 µM, first compound 0.316 µM", "value": 101, "unit": "%"}, {"measurement": "viability, T/C", "setting": "second compound 10 µM, first compound 1 µM", "value": 88.5, "unit": "%"}, {"measurement": "viability, T/C", "setting": "second compound 10 µM, first compound 3.16 µM", "value": 79.6, "unit": "%"}, {"measurement": "viability, T/C", "setting": "second compound 10 µM, first compound 10 µM", "value": 33.7, "unit": "%"}]}]}
